Reference: US8613927B2, “High affinity human antibodies to human nerve growth factor” (Regeneron Pharmaceuticals, Inc., priority 2007, dated 2013)
Where two headings read alike, the source gives them in different places.

Key:
NGF = NGF (Homo sapiens, UniProt P01138, DEL136-138/DEL208-209); assay: BIACORE cross-reactivity test, NGF injected at 20 nM; format: binding; settings: Table 3; NGF 20 nM
Protocol: (§1) The anti-NGF antibodies were examined for binding cross-reactivity with human NT-3. Briefly, goat anti-human IgG polyclonal antibody was chemically linked to a CM5 chip. Anti-NGF monoclonal antibodies were injected forming a surface of about 50 to 900 RU of immobilized antibody through the interaction with the chip coupled polyclonal antibodies. NGF or NT-3 protein at a concentration of 20 nM was injected over the surface, followed by a buffer wash to allow bound ligand to dissociate. Both association and dissociation phases were monitored and data were analyzed. Results are shown in Table 3 (NB=no binding activity observed).

[1] = test system: circulating levels of neurotrophin-3 (NT-3); assay: Serum NT-3 sandwich ELISA, mice of post incision pain model; format: in vivo, mouse; settings: day 4, 25 mg/kg i.p., mean±std dev, limit of detection ~40 pg/ml
Excerpt: On day 4, after the behavioral tests from post incision pain model were completed, the mice's sera were collected and analyzed for circulating levels of neurotrophin-3 (NT-3) using a sandwich ELISA. The limit of detection (˜40 pg/ml) was defined as two standard deviations (2σ) above background with a minimum of five NT-3 standards to define the response to concentration curve.

[2] = test system: NT-3 levels in sera of naïve C57BL/6 mice; assay: Serum NT-3 sandwich ELISA, naive mice; format: in vivo, mouse; settings: 50 mg/kg s.c.
Excerpt: The limit of detection (˜40 pg/ml) was defined as two standard deviations (2σ) above background with a minimum of five NT-3 standards to define the response to concentration curve.

human NT-3 = biological target: T1, human NT-3 (Homo sapiens, UniProt P20783); assay: BIACORE cross-reactivity test, NT-3; format: binding; settings: NT-3 1.25 nM to 40 nM; purified antibodies
T1 sequence (P20783 139-257): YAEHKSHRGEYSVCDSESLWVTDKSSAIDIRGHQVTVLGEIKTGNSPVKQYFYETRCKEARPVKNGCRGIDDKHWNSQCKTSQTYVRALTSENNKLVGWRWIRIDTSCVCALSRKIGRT
Protocol: as §1, with “NGF or NT-3 protein at a concentration of 20 nM was injected over the surface, followed by a buffer wash to allow bound ligand to dissociate.” left out

[3] = biological target: T2, Human NGF (PC12 cells, rat adrenal medulla cell line) (Homo sapiens, UniProt P01138, DEL136-138/DEL208-209); assay: PC12 SRE-luciferase assay of NGF signaling through p75 and TrkA; format: cell-based
T2 construct: host or cells: NGF added exogenously; receptors endogenous in PC12 cells
T2 sequence (P01138 with tags, fused parts or gaps DEL136-138/DEL208-209): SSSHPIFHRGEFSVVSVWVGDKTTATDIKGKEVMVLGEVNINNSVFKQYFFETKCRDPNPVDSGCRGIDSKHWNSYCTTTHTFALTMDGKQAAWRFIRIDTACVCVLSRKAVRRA
Protocol: The ability of NGF antibodies to block NGF signaling p75 and TrkA receptor-mediated activity was also measured in vitro using a rat adrenal medulla cell line, PC12, which express both receptors endogenously (Urdiales et al. 1998 J. Neuroscience 18(17):6767-6775). Briefly, PC12 cells were stably transfected with a reporter plasmid containing a serum response element (SRE) linked to a luciferase gene. The transfected cells were resuspended at approximately 2.5×10^5 cells per ml and plated at 50,000 cells per well in a 96-well tissue culture plate in Opti-MEM media overnight. The purified antibody proteins were serially diluted in medium (DMEM plus 0.1% BSA) and added to the plated cells at concentrations ranging from 0 to 100 nM. Human NGF was added to the wells to a final concentration of 12.5 pM. Luciferase activity was measured after incubating the cells for 6 hours at 37° C. in a humidified 7.5% CO2 incubator using BRIGHT GLOW™ luciferase assay system (Promega). Control mAb=RN624.

C57BL/6 male mice = assay: Complete Freund's Adjuvant (CFA) test of inflammatory pain, Hargreaves' test; format: in vivo, mouse
Protocol: Complete Freund's Adjuvant (CFA) test of inflammatory pain. To determine if anti-NGF antibodies could relieve pain in a chronic peripheral inflammatory mouse model, complete Freund's adjuvant (CFA) was injected subcutaneously (s.c.) into the hind paw of C57BL/6 male mice, causing thermal hyperalgesia, which was measured using the Hargreaves' test (Torres et al. (2007) Pain 130:267-278). Control mice received the vehicle (i.e., PBS) only. After acclimating the mice to the Hargreaves' apparatus (model 336, IITC Life Science) for 2-3 hours per day for 3 days, they were tested in the apparatus with an active intensity setting of 17%. A cut-off time of 25 sec was used to avoid tissue damage. For each mouse, 3 readings were obtained during a period of 30 min per day and the median latency was used for analysis. […] The Hargreaves' test was repeated daily for up to 4 days after CFA injection and % decrease from the baseline in paw withdrawal latency calculated (Tables 12 and 13, mean % change±SEM). […] There was no statistical difference between the tested antibodies and the control antibody. Table 12: n=7 for each group; all groups 10 mg/kg.

[4] = biological target: Human NGF binding to human p75-hFc (Homo sapiens, UniProt P01138, DEL136-138/DEL208-209); assay: BIACORE receptor blocking assay, free NGF bound to p75-hFc; settings: percentage free NGF bound; NGF 10-25 nM with molar excess of antibody; NGF alone = 100%
Sequence of Human NGF binding to human p75-hFc (P01138 with tags, fused parts or gaps DEL136-138/DEL208-209): as above
Excerpt: To identify blocking antibodies, a receptor blocking assay was designed using a BIACORE™ 3000 instrument. Recombinant human TrkA-hFc and human p75-hFc proteins were amine-coupled to a CM5 chip to a density of about 5000-6000 RU.

Sequence of NGF (P01138 with tags, fused parts or gaps DEL136-138/DEL208-209): as above

Substance: tanezumab [RN624]
- Kd (NGF): 0.0013 nM
- Serum NT-3 [1]: 172 ± 114 pg/mL
- Serum NT-3 ([2]; Day 1, limit of detection ~40 pg/ml): 131 ± 41 pg/mL
- Serum NT-3 ([2]; Day 7): 199 ± 15 pg/mL
- Serum NT-3 ([2]; Day 14): 196 ± 35 pg/mL
- NT-3 levels ([2]; over 1, 7 and 14 days post treatment): 131 to 199 pg/mL
- Kd (human NT-3): 1.1 nM
- IC50 ([3]; Table 10, 12.5 pM human NGF, 6 hours, read-out: PC12 IC50): 0.021 nM
- IC50 ([3]; Table 11, selected purified antibodies, PC12 luciferase, read-out: IC50): 0.0049 nM
- % decrease from the baseline in paw withdrawal latency (C57BL/6 male mice; Table 12, 10 mg/kg s.c. 1 hr before CFA, Baseline, mean±SEM): 0.0 ± 0.0%
- % decrease from the baseline in paw withdrawal latency (C57BL/6 male mice; Table 12, 10 mg/kg s.c., Day 1 after CFA): −58.3 ± 5.5%
- % decrease from the baseline in paw withdrawal latency (C57BL/6 male mice; Table 12, 10 mg/kg s.c., Day 2 after CFA): −30.9 ± 5.2%
- % decrease from the baseline in paw withdrawal latency (C57BL/6 male mice; Table 12, 10 mg/kg s.c., Day 3 after CFA): −20.7 ± 6.3%
- % decrease from the baseline in paw withdrawal latency (C57BL/6 male mice; Table 13, 10 mg/kg s.c., Baseline): 0.0 ± 0.0%
- % decrease from the baseline in paw withdrawal latency (C57BL/6 male mice; Table 13, 10 mg/kg s.c., Day 1 after CFA): −61.7 ± 9.7%
- % decrease from the baseline in paw withdrawal latency (C57BL/6 male mice; Table 13, 10 mg/kg s.c., Day 2 after CFA): −33.1 ± 17.9%
- % decrease from the baseline in paw withdrawal latency (C57BL/6 male mice; Table 13, 10 mg/kg s.c., Day 3 after CFA): −9.6 ± 15.4%
- % decrease from the baseline in paw withdrawal latency (C57BL/6 male mice; Table 13, 10 mg/kg s.c., Day 4 after CFA): −0.4 ± 18.5%
- % Binding p75-hFc [4]: 16%
